These results are taken from US20240082221A1, “COMPOSITIONS AND METHODS FOR THE IDENTIFICATION OF COMPOUNDS THAT PROTECT AGAINST LIPOFUSCIN CYTOTOXICITY” (priority 2021, published 2024).

Assay [1] relates to EDN2, FGF2, GFAP, SERP, VEGF, CXCL15, XBP1s, SCAND1, CEBPA, HMGA. Kind of assay: Intravitreal treatment of DKO mice, qPCR of retinal degeneration markers in whole retina. It counts as in vivo, ABCA4−/− RDH8−/− double knock-out mice (DKO). The settings on record: total RNA from whole retina, vs control injected eyes. The procedure:
Pharmacological treatment of mice. KIRA6 (Cayman Chemical, item no. 19151) was injected intravitreously with 1 μL total volume. KIRA6 concentration is 20 μg/ml. The control eye received an equal amount of mock reagent (DMSO). Mouse was weighed and anesthetized with Ketamine cocktail at 10 mg/kg, then mouse eyes were dilated with Tropicamide. The exact volume of Mock reagent or Kira6 was determined by 10 μl Hamilton syringe. Under surgery microscope, mouse eye was placed in the center of the field, 34 gauge of needle was inserted into mouse eye at the Ora serrata and towards ONH. Once the needle was inside the mouse eye, 2 μl of the contents in the Hamilton syringe was injected. The needle was slowly withdrawn to prevent the reflux of the solution. Nec7 (2 μL of 33 mM stock in DMSO) was intravitreally injected in the left eye and an equal amount of vehicle (DMSO) was administered to the right eye. After intravitreal injection, the mouse was placed in a warm place until it completely woke up. […]
RNA isolation and quantitative PCR. […] The total RNA then was reversed transcribed using High-Capacity cDNA Reverse Transcription Kit (ThermoFisher Scientific, cat.no. 4368814) and analyzed gene expression using SYBR Green Master Mix (ThermoFisher Scientific, cat.no. 4472908) in an Applied Biosystems StepOne real time PCR machine. […]

In a further assay the test system is CHOP. Kind of assay: Western blot of CHOP upregulation (UPR, downstream of PERK). It counts as cell-based, Human. The settings on record: cells incubated with A2E. As to the method:
Immunoblotting. Total cell lysates were extracted using RIPA lysis buffer (50 mM TrisHCl, Ph 8.0, 150 mM NaCl, 1% NP40, 0.5% Sodium Deoxycholate, 0.1% SDS, protease-phosphatase inhibitor) after the incubation of the specific sample group in a 48 well plate. Sonication or syringing (20 times) was done followed by centrifugation at 12,000×g for 10 mins and the supernatant was collected and stored in −80° C. Proten concentration from homogenates were assessed by Pierce Rapid Gold BCA protein assay kit (ThermoFisher Scientific, cat.no. A53225). Then 30 μg of protein was analyzed by standard SDS-PAGE gel. Samples were mixed 4:1 (v:v) with Nupage loading buffer with or without 8% 0-mercaptoethanol and heated for 10 min at 72° C. SDS-PAGE was done using 4-12% Nupage gel and buffer (Life, NP0335BOX). Next, SDS-PAGE gel was transferred to nitrocellulose membrane (Whatman, PROTAN BA83) overnight at 20V. The following day, 5% milk in TBS was used for 2 h blocking the membrane and then primary antibody was added in TBST (TBS, 0.1% Tween-20) for overnight at 4° C. Next day membranes were washed and incubated for 2 hours at room temperature with HRP conjugated secondary antibody (cat #G21234, Invitrogen) at 1:10,000 dilution. After 3 more washed membranes were probed with enhanced chemiluminescence (ECL) reagent and detected using an X-ray films for chemiluminescence image (GE healthcare, RPN2106). Scanning/imaging and quantitation of the image was done using silverfast 8 application software and Fiji Image J. Antibodies for Western blotting were list in FIG. 10.

The next assay has as its system XBP1s. The experiment in a line: qPCR of XBP1 splicing in hfRPE. The assay is classed as cell-based, Human. The text has this:
RNA isolation and quantitative PCR. Total RNA was extracted from cultured cells or mouse eye RPE layer using the RNeasy Mini kit (QIAGEN). The total RNA was digested with deoxyribonuclease I to prevent amplification of genomic DNA. The total RNA then was reversed transcribed using High-Capacity cDNA Reverse Transcription Kit (ThermoFisher Scientific, cat.no. 4368814) and analyzed gene expression using SYBR Green Master Mix (ThermoFisher Scientific, cat.no. 4472908) in an Applied Biosystems StepOne real time PCR machine. GAPDH was used as a reference gene. […] After genes were amplified by real time PCR, some of the PCR products were separated by 2.5% agarose gel.

Another assay deals with cathepsin D. The assay is classed as cell-based. The text has this: Next, A2E buildups were imaged using a combination of DIC and fluorescence: A2E appeared as granules with well-defined edges, both within cells or after drying over a coverslip (FIGS. 14D and 14E). Next, the ability of the suspected A2E crystals to damage lysosomal membranes was investigated. A recently developed galectin-3 puncta assay for early detection of lysosomal membrane permeabilization (LMP) was used. Briefly, cytosolic galectin-3 rapidly binds to the glycocalyx in the luminal face of lysosomal membranes as they become leaky, which is easily detectable with anti-galectin high-affinity antibodies. L-Leucyl-L-Leucine methyl ester (LLO) a lysosomotropic peptide that causes LMP was used as positive control of puncta formation (FIG. 14E). […] LMP was confirmed by showing the […] of cathepsin D, as surrogate of lysosomal enzymes. […] Also, very remarkable was the observation that the same unique pattern of protection with arimoclomol and Nec-7 but not Nec-1 was observable for LLO (FIG. 14K), consistent with the idea that necroptosis by A2E is being caused by LMP.

The next assay has as its system ARPE19 cells. The experiment in a line: ATR-induced light-independent cell death. It counts as cell-based, Human. The settings on record: pre-treatment with 33 μM. The text has this:
Overall, these indicate that necroptosis is a specific readout of ocular lipofuscin toxicity, easily distinguishable from the poisonous effects of ATR.

For assay [2], the system named is unfolded protein response (UPR) pathway. Kind of assay: RNAseq / Ingenuity Pathway Analysis of cells with dark LF cytotoxicity. The assay is classed as cell-based, Human. The settings on record: cells with dark LF cytotoxicity vs cells rescued by treatment. The procedure:
RNAseq. Cultured ARPE19 cells were treated with or without 15 uM A2E for 24 hours, then cells were harvested and total RNA extracted. […]. RNAseq profiles were analyzed further with Ingenuity Pathway Analysis (IPA, Qiagen).
To investigate the cellular processes leading to necroptosis, Ingenuity Pathway Analysis (IPA) was used to compare the transcriptomes of cells suffering of dark LF cytotoxicity with cells rescued by Nec7 treatment. […] The UPR is a conserved transcriptional response to the aberrant accumulation of misfolded proteins or lipids in the endoplasmic reticulum. UPR is elicited by three ER-resident sensors: PERK, IRE1α and […]. […] To evaluate the impact of UPR downregulation, the list of UPR transcripts inhibited by Nec7 was extracted and a new IPA analysis was performed for the downstream consequences (FIG. 5D).

`CC(C)(C)c1nc(-c2ccc(NC(=O)Nc3cccc(C(F)(F)F)c3)c3ccccc23)c2c(N)nccn12` [KIRA6]: the “mRNA levels of markers for retinal degeneration, inflammation/angiogenesis, ER-stress and necroptosis” value in assay [1] is recorded as “generalized reduction in all the tested markers”.
With `N=C1S/C(=C\c2cn[nH]c2-c2ccc(F)cc2)C(=O)N1c1nccs1` [Nec7, Necrostatin 7], the “effect on LF-induced upregulation of CHOP / UPR” value in the assay on CHOP was “completely abrogated”. Besides, the “effect on LF-induced XBP1 splicing in hfRPE” value in the assay on XBP1s is reported as “prevention”. Besides, in the assay with cathepsin D, the “effect on loss of cathepsin-D activity caused by A2E” value is on record as “prevented”. For the same molecule, the “effect on cell death by ATR” value in the assay with ARPE19 cells is on record as “did not block cell death”. Also, in assay [2], the “transcriptome pathway variation induced by treatment (IPA)” value is listed as “inhibition of the unfolded protein response (UPR)”.
